{"source": "PubChem BioAssay AID1199", "about": "(EPA DSSTox, 2008)", "test_system": "mouse carcinogenicity bioassay, TD50 from CPDB", "experiment": "DSSTox (CPDBAS) Carcinogenic Potency Database Summary Mouse Bioassay Results", "conditions": "for outcome: TD50_Mouse_Note: no positive results", "description": "The Carcinogenic Potency Database (CPDB) is a unique and widely used international resource of the results of over 6500 chronic, long-term animal cancer tests on over 1500 chemical substances. The CPDB provides easy access to the bioassay literature, with qualitative and quantitative analyses of both positive and negative experiments that have been published over the past 50 years in the general literature and by the National Cancer Institute/National Toxicology Program. The CPDB standardizes the diverse literature of cancer bioassays that vary widely in protocol, histopathological examination and nomenclature, and in the published author's choices of what information to provide in their papers. Results are reported in the CPDB for tests in rats, mice, hamsters, dogs, and nonhuman primates, and are based on the most positive result among all experiments for each sex-species. The DSSTox CPDBAS (all species) file incorporates data from the CPDB Summary Tables for the full list of over 1500 chemical substances tested in at least one species. Summary bioassay results for Mouse (TD50, tumor sites, male, female, both sexes) are provided in the CPDB Summary Tables and the DSSTox CPDBAS file for over 1000 chemical substances.\nTD50 is a standardized quantitative measure of carcinogenic potency (analogous to an LD50) and is reported in the CPDB Summary Table for each species. Activity Score for actives is computed by mapping of LOG10 (1/TD50_Mouse_mmol) activity values spanning range [MIN, MAX] onto Integer 1-100 Activity Score range, where 100 is highest potency and 1 is lowest: Activity Score = 100 * INTEGER[(log10(1/Activity) - MIN)/(MAX […] MIN)]. If activity is reported but no TD50_Mouse_mmol value is computed, such as for a mixture, the Activity Score is assigned the activity value \"50\". […] Target sites are reported for each sex-species group with a positive result in the CPDB on the basis of a positive author's opinion for the particular site, using all results from both the general literature and NCI/NTP bioassays. If a chemical has two or more target sites listed, the results may be from different experiments, and a single site may be a target organ in more than one experiment, as well. Blank entry in TargetSites field indicates no results reported.", "key": {"[1]": {"conditions": "TD50_Mouse_Note: TD50 is harmonic mean of more than one positive test, TargetSites_Mouse_Female: stomach"}, "[2]": {"conditions": "TargetSites_Mouse_Female: no positive results"}, "[3]": {"conditions": "TD50_Mouse_Note: TD50 is harmonic mean of more than one positive test, TargetSites_Mouse_Female: no positive results"}, "[4]": {"conditions": "TD50_Mouse_Note: TD50 is harmonic mean of more than one positive test, TargetSites_Mouse_Female: liver"}}, "note": "Calls of active or inactive are those of the source.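 Rule for the calls: active = a tumour-causing dose and a tumour site recorded for mice in at least one sex group; inconclusive = only government mouse studies exist and were judged inadequate; inactive = mouse studies exist but none gave tumours.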"}
{"smiles": "C/C=C/C=C/C=O", "values": [{"measurement": "Potency", "setting": "[1]", "value": 1.83, "unit": "mmol/kg/day"}]}
{"smiles": "C[C@H]1CCCC(=O)CCC/C=C/c2cc(O)cc(O)c2C(=O)O1", "values": [{"measurement": "Potency", "setting": "TD50_Mouse_Note: TD50 is harmonic mean of more than one positive test, TargetSites_Mouse_Female: liver, pituitary gland", "value": 0.123, "unit": "mmol/kg/day"}]}
{"smiles": "Cn1c(=O)c2[nH]cnc2n(C)c1=O", "values": [{"measurement": "outcome", "setting": "[2]", "value": "inactive; no positive results"}]}
{"smiles": "Cc1ccc(S(=O)(=O)NC(=O)NN2CCCCCC2)cc1", "values": [{"measurement": "outcome", "setting": "[2]", "value": "inactive; no positive results"}]}
{"smiles": "CC(Cl)(Cl)Cl", "values": [{"measurement": "outcome", "setting": "[2]", "value": "inactive; no positive results"}]}
{"smiles": "CC1CO1", "note": "(configuration not stated)", "values": [{"measurement": "Potency", "setting": "TD50_Mouse_Note: TD50 is harmonic mean of more than one positive test, TargetSites_Mouse_Female: nasal cavity", "value": 15.7, "unit": "mmol/kg/day"}]}
{"smiles": "CCCN(CCC)c1c([N+](=O)[O-])cc(C(F)(F)F)cc1[N+](=O)[O-]", "values": [{"measurement": "Potency", "setting": "TargetSites_Mouse_Female: liver, lung, stomach", "value": 0.984, "unit": "mmol/kg/day"}]}
{"smiles": "C=CCOCC1CO1", "note": "(configuration not stated)", "values": [{"measurement": "Potency", "setting": "[2]", "value": 1.59, "unit": "mmol/kg/day"}]}
{"smiles": "O=C(O)/C=C/c1ccc(O)c(O)c1", "values": [{"measurement": "Potency", "setting": "TD50_Mouse_Note: TD50 is harmonic mean of more than one positive test, TargetSites_Mouse_Female: kidney, stomach", "value": 27.2, "unit": "mmol/kg/day"}]}
{"smiles": "CN(C)C(=S)[S][Pb][S]C(=S)N(C)C", "values": [{"measurement": "outcome", "setting": "[2]", "value": "inactive; no positive results"}]}
{"smiles": "OC(c1ccc(Cl)cc1)(c1ccc(Cl)cc1)C(Cl)(Cl)Cl", "values": [{"measurement": "Potency", "setting": "[2]", "value": 0.0888, "unit": "mmol/kg/day"}]}
{"smiles": "O=c1c(CO)c/c(=N/Nc2ccc(S(=O)(=O)O)c3ccccc23)c(=O)/c1=N/Nc1ccc(S(=O)(=O)O)c2ccccc12", "values": [{"measurement": "outcome", "setting": "[2]", "value": "inactive; no positive results"}]}
{"smiles": "Cc1ccc(Cc2cnc(NCCSCc3ccc(CN(C)C)o3)[nH]c2=O)cn1", "values": [{"measurement": "outcome", "setting": "[2]", "value": "inactive; no positive results"}]}
{"smiles": "NC(=O)c1ccncc1", "values": [{"measurement": "outcome", "setting": "[2]", "value": "inactive; no positive results"}]}
{"smiles": "CCC1CO1", "note": "(configuration not stated)", "values": [{"measurement": "outcome", "setting": "[2]", "value": "inactive; no positive results"}]}
{"smiles": "O=C(Nc1ccc([N+](=O)[O-])cc1Cl)c1cc(Cl)ccc1O", "values": [{"measurement": "outcome", "setting": "[2]", "value": "inactive; ntp bioassay inadequate"}]}
{"smiles": "O=C(Nc1nc(-c2ccc([N+](=O)[O-])o2)cs1)C(F)(F)F", "values": [{"measurement": "Potency", "setting": "TargetSites_Mouse_Female: stomach", "value": 0.0325, "unit": "mmol/kg/day"}]}
{"smiles": "Cc1cccc(Nc2cc(Cl)nc(SCC(=O)NCCO)n2)c1C", "values": [{"measurement": "Potency", "setting": "TargetSites_Mouse_Female: liver", "value": 0.122, "unit": "mmol/kg/day"}]}
{"smiles": "CN(N=O)c1ncnc2c1ncn2[C@@H]1O[C@H](CO)[C@@H](O)[C@H]1O", "values": [{"measurement": "Potency", "setting": "TD50_Mouse_Note: TD50 is harmonic mean of more than one positive test, TargetSites_Mouse_Female: lung, mammary gland, uterus", "value": 0.059, "unit": "mmol/kg/day"}]}
{"smiles": "C[N+](C)(C)CCCl", "values": [{"measurement": "outcome", "setting": "[2]", "value": "inactive; no positive results"}]}
{"smiles": "N[C@@H](CCC(=O)NNc1ccc(C(=O)O)cc1)C(=O)O", "values": [{"measurement": "Potency", "setting": "[2]", "value": 0.985, "unit": "mmol/kg/day"}]}
{"smiles": "O.O.O.O.O.O.O.O=S(=O)([O-])[O-].[Co+2]", "values": [{"measurement": "Potency", "setting": "TD50_Mouse_Note: TD50 is harmonic mean of more than one positive test, TargetSites_Mouse_Female: lung", "value": 0.00269, "unit": "mmol/kg/day"}]}
{"smiles": "OCCN(CCO)C(=S)S", "values": [{"measurement": "Potency", "setting": "[3]", "value": 0.172, "unit": "mmol/kg/day"}]}
{"smiles": "O=[N+]([O-])c1ccc(-c2cnc3ccccn23)o1", "values": [{"measurement": "Potency", "setting": "TD50_Mouse_Note: TD50 is harmonic mean of more than one positive test, TargetSites_Mouse_Female: esophagus, stomach", "value": 0.118, "unit": "mmol/kg/day"}]}
{"smiles": "c1cc(OCC2CO2)cc(OCC2CO2)c1", "note": "(configuration not stated)", "values": [{"measurement": "Potency", "setting": "[1]", "value": 0.109, "unit": "mmol/kg/day"}]}
{"smiles": "Cc1cc(O)c2c(c1O)C(=O)C13C(=C2O)C(=O)C2C(O)C1C1C(O)C3C(=O)C3=C(O)c4c(O)cc(C)c(O)c4C(=O)C321", "note": "(configuration not stated)", "values": [{"measurement": "Potency", "setting": "[4]", "value": 0.0324, "unit": "mmol/kg/day"}]}
{"smiles": "O=C(O)[C@@H]1[C@H](C(=O)O)[C@@]2(Cl)C(Cl)=C(Cl)[C@]1(Cl)C2(Cl)Cl", "values": [{"measurement": "Potency", "setting": "[2]", "value": 0.363, "unit": "mmol/kg/day"}]}
{"smiles": "ClC(Cl)(Cl)C(Cl)(Cl)Cl", "values": [{"measurement": "Potency", "setting": "[4]", "value": 1.43, "unit": "mmol/kg/day"}]}
{"smiles": "CC(=O)Nc1ccc(S(=O)(=O)O)c2cc(S(=O)(=O)O)c(N=Nc3ccc(N=Nc4ccc(S(=O)(=O)O)cc4)c4ccc(S(=O)(=O)O)cc34)c(O)c12", "values": [{"measurement": "outcome", "setting": "[2]", "value": "inactive; no positive results"}]}
{"smiles": "C=C1C(C)(C)[C@@]2(Cl)C(Cl)[C@]1(Cl)C(Cl)(Cl)C2(Cl)Cl", "note": "(some centres not stated)", "values": [{"measurement": "Potency", "setting": "[3]", "value": 0.00234, "unit": "mmol/kg/day"}]}
{"smiles": "C=CC=C", "values": [{"measurement": "Potency", "setting": "TD50_Mouse_Note: TD50 is harmonic mean of more than one positive test, greater than ten-fold variation among TD50 values for positive res, TargetSites_Mouse_Female: harderian gland, hematopoietic system, liver, lung, mammary gland, ovary, stomach, vascular system", "value": 0.257, "unit": "mmol/kg/day"}]}
{"smiles": "O=S(=O)(O)NC1CCCCC1", "values": [{"measurement": "Potency", "setting": "TD50_Mouse_Note: TD50 is harmonic mean of more than one positive test, TargetSites_Mouse_Female: all tumor bearing animals", "value": 3.31, "unit": "mmol/kg/day"}]}
{"smiles": "CC(C)Nc1nc(Cl)nc(NC(C)C)n1", "values": [{"measurement": "outcome", "setting": "[2]", "value": "inactive; no positive results"}]}
{"smiles": "Clc1ccccc1", "values": [{"measurement": "outcome", "setting": "[2]", "value": "inactive; no positive results"}]}
{"smiles": "Cc1ccc2ccccc2c1", "values": [{"measurement": "outcome", "setting": "[2]", "value": "inactive; no positive results"}]}
{"smiles": "CC(COc1ccccc1)N(CCCl)Cc1ccccc1", "note": "(configuration not stated)", "values": [{"measurement": "Potency", "setting": "TD50_Mouse_Note: positive test results only by intraperitoneal or intravenous injection, TD50 is harmonic mean of more than one positive, TargetSites_Mouse_Female: peritoneal cavity", "value": 0.0158, "unit": "mmol/kg/day"}]}
{"smiles": "ClCOCCOCCl", "values": [{"measurement": "Potency", "setting": "TD50_Mouse_Note: positive test results only by intraperitoneal or intravenous injection, TargetSites_Mouse_Female: peritoneal cavity", "value": 0.0291, "unit": "mmol/kg/day"}]}
{"smiles": "Nc1ncc([N+](=O)[O-])s1", "values": [{"measurement": "outcome", "setting": "[2]", "value": "inactive; no positive results"}]}
{"smiles": "N[C@@H](Cc1ccc(N(CCCl)CCCl)cc1)C(=O)O", "values": [{"measurement": "Potency", "setting": "TD50_Mouse_Note: positive test results only by intraperitoneal or intravenous injection, TD50 is harmonic mean of more than one positive, TargetSites_Mouse_Female: lung", "value": 0.000491, "unit": "mmol/kg/day"}]}
{"smiles": "COc1ccc(N)c(OC)c1", "values": [{"measurement": "outcome", "setting": "[2]", "value": "inactive; no positive results"}]}
{"smiles": "Nc1ccc([N+](=O)[O-])cc1N", "values": [{"measurement": "outcome", "setting": "[2]", "value": "inactive; no positive results"}]}
{"smiles": "O=C1C(c2[nH]c3ccc(S(=O)(=O)O)cc3c2O)=Nc2ccc(S(=O)(=O)O)cc21", "values": [{"measurement": "outcome", "setting": "[2]", "value": "inactive; no positive results"}]}
